Assay results from ChEMBL document CHEMBL4814074 (Bioorg Med Chem Lett, 2021).
pEC50: −log10 of the molar value.

Legend:
[1] = target: hERG (KCNH2) (Homo sapiens, UniProt Q12809); assay: Inhibition of human ERG at 3 uM relative to control
[2] = tested on: Machupo mammarenavirus; assay: Antiviral activity against pseudotyped Machupo virus; assay type: functional, organism-based; conditions: Mammarenavirus machupoense
[3] = (§1) Cytotoxicity against African green monkey Vero cells measured after 5 days; assay type: cell-based; conditions: chlorocebus sabaeus, Vero cells; time 5 day
[4] = tested on: Junin virus; assay: Antiviral activity against pseudotyped Junin virus; assay type: functional, organism-based; conditions: Mammarenavirus juninense
[5] = tested on: Lassa virus; assay: Antiviral activity against pseudotyped Lassa mammarenavirus; assay type: functional, organism-based; conditions: Mammarenavirus lassaense
[6] = tested on: Vero; assay: as §1; assay type: cell-based; conditions: chlorocebus sabaeus, vero, 120 h; time 5 day
[7] = tested on: Junin virus; assay: Antiviral activity against Junin virus by virus yield reduction assay; assay type: functional, organism-based; conditions: Mammarenavirus juninense
[8] = target: CYP2C9 (Homo sapiens, UniProt P11712); assay: Inhibition of CYP2C9 (unknown origin) at 20 uM; assay type: ADME
[9] = target: CYP2D6 (Homo sapiens, UniProt P10635); assay: Inhibition of CYP2D6 (unknown origin) at 20 uM; assay type: ADME
[10] = target: CYP3A4 (Homo sapiens, UniProt P08684); assay: Inhibition of CYP3A4 (unknown origin) at 20 uM; assay type: ADME
[11] = target: CYP2C19 (Homo sapiens, UniProt P33261); assay: Inhibition of CYP2C19 (unknown origin) at 20 uM; assay type: ADME
[12] = target: T1, CYP1A2 (Homo sapiens, UniProt P05177); assay: Inhibition of CYP1A2 (unknown origin) at 20 uM; assay type: ADME
T1 sequence (P05177 whole entry): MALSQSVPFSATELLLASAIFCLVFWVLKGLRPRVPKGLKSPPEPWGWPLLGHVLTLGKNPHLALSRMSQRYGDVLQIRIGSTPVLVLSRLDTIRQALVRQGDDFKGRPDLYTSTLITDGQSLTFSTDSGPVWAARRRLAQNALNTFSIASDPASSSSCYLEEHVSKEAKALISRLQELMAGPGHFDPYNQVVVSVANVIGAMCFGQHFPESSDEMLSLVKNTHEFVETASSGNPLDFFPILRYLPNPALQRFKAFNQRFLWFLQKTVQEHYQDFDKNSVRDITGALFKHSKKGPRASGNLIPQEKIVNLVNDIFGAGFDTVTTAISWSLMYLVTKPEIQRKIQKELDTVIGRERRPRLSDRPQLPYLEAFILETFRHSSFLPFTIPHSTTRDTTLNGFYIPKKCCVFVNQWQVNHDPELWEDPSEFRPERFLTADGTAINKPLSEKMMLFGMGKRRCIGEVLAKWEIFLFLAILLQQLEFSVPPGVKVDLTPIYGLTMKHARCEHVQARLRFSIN

[13] = tested on: Lassa virus; assay: Antiviral activity against Lassa virus by virus yield reduction assay; assay type: functional, organism-based; conditions: Mammarenavirus lassaense
[14] = tested on: Lassa virus; assay: Antiviral activity against Lassa virus by plaque reduction assay; assay type: functional, organism-based; conditions: Mammarenavirus lassaense

CYP3A4, sequence (P08684 whole entry): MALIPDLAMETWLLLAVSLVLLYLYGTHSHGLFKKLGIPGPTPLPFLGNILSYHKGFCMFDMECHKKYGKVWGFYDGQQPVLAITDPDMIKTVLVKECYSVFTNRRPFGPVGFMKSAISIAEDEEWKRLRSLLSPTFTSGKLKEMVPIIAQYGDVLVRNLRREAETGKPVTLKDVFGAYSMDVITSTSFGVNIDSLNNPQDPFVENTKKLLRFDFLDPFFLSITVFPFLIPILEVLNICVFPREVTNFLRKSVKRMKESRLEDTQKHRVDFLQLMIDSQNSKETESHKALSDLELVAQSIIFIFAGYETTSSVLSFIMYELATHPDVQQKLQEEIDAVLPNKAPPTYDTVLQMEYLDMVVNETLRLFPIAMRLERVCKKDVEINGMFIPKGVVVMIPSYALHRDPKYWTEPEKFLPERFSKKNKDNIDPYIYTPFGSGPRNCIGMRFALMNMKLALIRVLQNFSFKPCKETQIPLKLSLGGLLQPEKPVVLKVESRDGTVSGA
hERG (KCNH2), sequence (Q12809 whole entry): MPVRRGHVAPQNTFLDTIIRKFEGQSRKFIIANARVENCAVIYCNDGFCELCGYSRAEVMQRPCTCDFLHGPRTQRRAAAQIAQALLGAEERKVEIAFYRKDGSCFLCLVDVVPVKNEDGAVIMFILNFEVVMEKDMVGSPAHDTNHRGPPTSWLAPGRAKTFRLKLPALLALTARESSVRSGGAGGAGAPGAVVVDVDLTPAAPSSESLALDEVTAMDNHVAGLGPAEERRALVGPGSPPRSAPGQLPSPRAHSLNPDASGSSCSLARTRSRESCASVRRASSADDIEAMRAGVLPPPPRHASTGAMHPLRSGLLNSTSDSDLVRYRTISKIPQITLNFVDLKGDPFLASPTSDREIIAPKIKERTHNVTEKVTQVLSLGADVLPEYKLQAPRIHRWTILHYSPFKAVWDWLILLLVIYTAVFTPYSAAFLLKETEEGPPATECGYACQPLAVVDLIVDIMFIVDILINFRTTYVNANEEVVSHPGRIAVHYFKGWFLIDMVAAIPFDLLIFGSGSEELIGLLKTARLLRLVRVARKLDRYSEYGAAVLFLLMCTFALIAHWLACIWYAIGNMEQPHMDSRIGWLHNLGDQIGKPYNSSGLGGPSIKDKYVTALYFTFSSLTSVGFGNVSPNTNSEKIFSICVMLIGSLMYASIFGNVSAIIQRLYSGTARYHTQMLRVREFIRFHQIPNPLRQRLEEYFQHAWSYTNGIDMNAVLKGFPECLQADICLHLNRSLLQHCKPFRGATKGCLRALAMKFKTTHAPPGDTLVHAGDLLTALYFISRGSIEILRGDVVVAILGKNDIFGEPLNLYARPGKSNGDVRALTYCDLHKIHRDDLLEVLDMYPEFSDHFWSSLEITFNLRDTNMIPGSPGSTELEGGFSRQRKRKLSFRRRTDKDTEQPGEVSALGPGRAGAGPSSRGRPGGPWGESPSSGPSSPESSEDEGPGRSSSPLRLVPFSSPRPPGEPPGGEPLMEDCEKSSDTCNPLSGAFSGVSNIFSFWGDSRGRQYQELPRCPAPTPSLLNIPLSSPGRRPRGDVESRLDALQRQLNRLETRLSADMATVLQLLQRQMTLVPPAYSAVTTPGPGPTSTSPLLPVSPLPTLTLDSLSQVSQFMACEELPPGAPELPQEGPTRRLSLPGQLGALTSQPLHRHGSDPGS
CYP2C19, sequence (P33261 whole entry): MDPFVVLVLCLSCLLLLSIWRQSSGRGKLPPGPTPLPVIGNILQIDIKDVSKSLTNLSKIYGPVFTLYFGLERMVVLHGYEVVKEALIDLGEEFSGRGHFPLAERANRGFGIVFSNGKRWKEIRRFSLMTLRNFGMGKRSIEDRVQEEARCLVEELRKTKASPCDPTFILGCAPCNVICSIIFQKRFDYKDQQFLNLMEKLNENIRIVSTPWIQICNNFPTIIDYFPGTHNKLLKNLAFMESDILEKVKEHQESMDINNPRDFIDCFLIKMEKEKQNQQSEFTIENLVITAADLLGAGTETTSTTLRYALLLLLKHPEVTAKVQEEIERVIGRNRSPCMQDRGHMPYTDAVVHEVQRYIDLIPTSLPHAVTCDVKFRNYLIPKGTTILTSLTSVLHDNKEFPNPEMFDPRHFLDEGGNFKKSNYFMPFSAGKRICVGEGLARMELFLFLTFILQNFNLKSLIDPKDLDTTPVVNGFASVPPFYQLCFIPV
CYP2D6, sequence (P10635 whole entry): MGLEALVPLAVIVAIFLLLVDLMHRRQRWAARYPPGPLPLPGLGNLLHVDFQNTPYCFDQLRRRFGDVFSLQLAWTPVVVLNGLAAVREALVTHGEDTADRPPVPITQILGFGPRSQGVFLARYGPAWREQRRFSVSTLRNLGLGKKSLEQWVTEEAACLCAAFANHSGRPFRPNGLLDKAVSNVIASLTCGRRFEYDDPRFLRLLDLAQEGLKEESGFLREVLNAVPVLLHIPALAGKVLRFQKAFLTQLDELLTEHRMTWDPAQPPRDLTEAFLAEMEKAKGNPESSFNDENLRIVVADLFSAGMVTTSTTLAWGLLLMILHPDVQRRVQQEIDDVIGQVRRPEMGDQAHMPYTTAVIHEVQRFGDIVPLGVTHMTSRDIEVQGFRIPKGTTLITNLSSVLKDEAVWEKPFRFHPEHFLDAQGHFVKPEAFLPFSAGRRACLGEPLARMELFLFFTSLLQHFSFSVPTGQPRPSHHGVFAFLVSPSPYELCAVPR
CYP2C9, sequence (P11712 whole entry): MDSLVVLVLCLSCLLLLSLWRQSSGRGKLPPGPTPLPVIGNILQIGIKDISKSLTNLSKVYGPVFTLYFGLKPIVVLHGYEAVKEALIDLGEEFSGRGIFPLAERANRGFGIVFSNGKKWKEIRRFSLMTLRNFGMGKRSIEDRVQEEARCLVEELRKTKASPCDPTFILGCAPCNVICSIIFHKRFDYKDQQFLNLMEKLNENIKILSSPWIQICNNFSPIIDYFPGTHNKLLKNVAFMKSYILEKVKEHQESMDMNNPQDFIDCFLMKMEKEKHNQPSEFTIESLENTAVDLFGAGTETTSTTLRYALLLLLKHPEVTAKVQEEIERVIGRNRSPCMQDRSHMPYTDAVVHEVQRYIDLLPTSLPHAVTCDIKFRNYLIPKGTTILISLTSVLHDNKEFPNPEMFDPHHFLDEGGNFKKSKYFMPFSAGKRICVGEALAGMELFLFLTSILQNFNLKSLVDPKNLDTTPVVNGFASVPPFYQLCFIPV

| SMILES | inhibition at 3 µM [1] [%] | pEC50 [2] | pEC50 [4] | pEC50 [5] | other results |
| --- | --- | --- | --- | --- | --- |
| CC(C)Oc1ccc(-c2ccc3ncn(-c4ccc(OC(C)C)cc4)c3n2)cc1 | < 10 |  |  |  |  |
| CC(C)Oc1ccc(-c2ccn3cnc(-c4ccc(OC(C)C)cc4)c3c2)cc1 |  | < 7.60 | 7.66 | 7.68 | CC50 at 120 h [3]: 7540 nM |
| Cc1c(-c2ccc(OC(C)C)cc2)ccc2ncc(-c3ccc(OC(C)C)cc3)n12 |  | 9.80 | 9.77 | 9.49 | CC50 [6]: 4190 nM |
| Cc1cc2nnn(-c3ccc(OC(C)C)cc3)c2cc1-c1ccc(OC(C)C)cc1 | < 10 | 9.28 | 9.68 | 8.98 | pEC50 [7]: > 9.00; EC90 [7]: 2.4 nM |
| CC(C)Oc1ccc(-c2ccc3nnn(-c4ccc(OC(C)C)cc4)c3c2)cc1 | 17 |  |  |  |  |
| CC(C)Oc1ccc(-c2cnc3ccc(-c4ccc(OCCN5CCOCC5)cc4)cn23)cc1 |  | < 7.60 | < 7.60 | < 7.60 |  |
| CC(C)Oc1ccc(-c2ccc3ncc(-c4ccc(OC(C)(C)C)cc4)n3c2)cc1 | 48 |  |  |  |  |
| Cc1cc2ncc(-c3ccc(OC(C)C)cc3)n2cc1-c1ccc(OC(C)C)cc1 | 14 |  |  |  | inhibition at 20 µM [8]: < 21%; inhibition at 20 µM [9]: < 21%; inhibition at 20 µM [10]: < 21%; inhibition at 20 µM [11]: < 21%; inhibition at 20 µM [12]: < 21% |
| CC(C)Oc1ccc(-c2ccc3ncn(-c4ccc(OC(C)C)cc4)c3c2)cc1 | 30 |  |  |  |  |
| CC(C)Oc1ccc(-c2cnc3ncc(-c4ccc(OC(C)C)cc4)n3c2)cc1 | 37 |  |  |  |  |
| CC(C)Oc1ccc(-c2ccc3nnc(-c4ccc(OC(C)C)cc4)n3c2)cc1 | 57 |  |  |  |  |
| CC(C)Oc1ccc(-c2ccc3cnn(-c4ccc(OC(C)C)cc4)c3c2)cc1 |  | < 7.60 | 7.85 | < 7.60 |  |
| CC(C)Oc1ccc(-c2cnc3ccc(-c4ccc(C(N)=O)cc4)cn23)cc1 |  | < 7.60 | < 7.60 | < 7.60 |  |
| CC(C)Oc1ccc(-c2ccc3cnc(-c4ccc(OC(C)C)cc4)n3c2)cc1 |  | < 7.60 | < 7.60 | < 7.60 |  |
| Cc1cc2ncc(-c3ccc(OC(C)(C)C)cc3)n2cc1-c1ccc(OC(C)C)cc1 | < 10 | 9.77 | 9.52 | 9.17 | pEC50 [13]: > 9.52; EC90 [13]: 0.87 nM; inhibition at 20 µM [8]: < 21%; inhibition at 20 µM [9]: < 21%; pEC50 [7]: 9.22; EC90 [7]: 1.2 nM; inhibition at 20 µM [10]: < 21%; inhibition at 20 µM [11]: < 21%; pEC50 [14]: > 8.48; EC90 [14]: < 3.3 nM; inhibition at 20 µM [12]: < 21% |
| Cc1cc2ncn(-c3ccc(OC(C)C)cc3)c2cc1-c1ccc(OC(C)C)cc1 | < 10 | 9.77 | 9.96 | 9.19 | pEC50 [13]: 8.92; EC90 [13]: 2.1 nM; inhibition at 20 µM [8]: < 21%; inhibition at 20 µM [9]: < 21%; inhibition at 20 µM [10]: 44%; inhibition at 20 µM [11]: < 21%; pEC50 [14]: > 8.48; EC90 [14]: < 4.2 nM; inhibition at 20 µM [12]: < 21% |
| CC(C)Oc1ccc(-c2cnc3ccc(-c4ccc(OC(C)C)cc4F)cn23)cc1 |  | < 7.60 | < 7.60 | < 7.60 |  |
| Cc1cc2ncn(-c3ccc(OC(C)(C)C)cc3)c2cc1-c1ccc(OC(C)(C)O)cc1 | < 10 | 9.92 | 9.00 | 8.40 | pEC50 [13]: > 9.52; EC90 [13]: < 0.3 nM; inhibition at 20 µM [8]: < 21%; inhibition at 20 µM [9]: < 21%; pEC50 [7]: 9.05; EC90 [7]: 6.2 nM; inhibition at 20 µM [10]: < 21%; inhibition at 20 µM [11]: < 21%; pEC50 [14]: > 8.48; EC90 [14]: < 3.3 nM; inhibition at 20 µM [12]: < 21% |
| CC(C)Oc1ccc(-c2ccc3ncc(-c4ccc(OC(C)C)cc4)n3c2)cc1 | 89 |  |  |  |  |
| CC(C)Oc1ccc(-c2ccc3ccn(-c4ccc(OC(C)C)cc4)c3c2)cc1 |  | 7.69 | 9.05 | < 7.60 |  |
